Measured values taken from PubChem BioAssay AID1963845 (Molecular Pharmacology Branch, DTP, NCI, 2024).

Tested on: 429239-143-T-J1-PDC complex spheroid viability
Experiment: Anticancer human tumor 429239-143-T-J1-PDC patient-derived small cell lung carcinoma cell line growth inhibition [POLQ]
Conditions: for IC50: curve of first compound; for viability, T/C: stronger effect = lower value
Summary of the method: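 PDC + HUVEC + MSC complex spheroids; POLQ inhibitors ± partner drugs; top conc. at/near clinical Cmax, else 10 microM (SN-38 1 microM), half-log dilutions; 37 degrees C, 5% CO2.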

[1] = second compound 0.0316 µM, first compound 0.0316 µM
[2] = second compound 0.0316 µM, first compound 0.1 µM
[3] = second compound 0.0316 µM, first compound 0.316 µM
[4] = second compound 0.0316 µM, first compound 1 µM
[5] = second compound 0.0316 µM, first compound 3.16 µM
[6] = second compound 0.0316 µM, first compound 10 µM
[7] = second compound 0.1 µM, first compound 0.0316 µM
[8] = second compound 0.1 µM, first compound 0.1 µM
[9] = second compound 0.1 µM, first compound 0.316 µM
[10] = second compound 0.1 µM, first compound 1 µM
[11] = second compound 0.1 µM, first compound 3.16 µM
[12] = second compound 0.1 µM, first compound 10 µM
[13] = second compound 0.316 µM, first compound 0.0316 µM
[14] = second compound 0.316 µM, first compound 0.1 µM
[15] = second compound 0.316 µM, first compound 0.316 µM
[16] = second compound 0.316 µM, first compound 1 µM
[17] = second compound 0.316 µM, first compound 3.16 µM
[18] = second compound 0.316 µM, first compound 10 µM
[19] = second compound 1 µM, first compound 0.0316 µM
[20] = second compound 1 µM, first compound 0.1 µM
[21] = second compound 1 µM, first compound 0.316 µM
[22] = second compound 1 µM, first compound 1 µM
[23] = second compound 1 µM, first compound 3.16 µM
[24] = second compound 1 µM, first compound 10 µM
[25] = second compound 3.16 µM, first compound 0.0316 µM
[26] = second compound 3.16 µM, first compound 0.1 µM
[27] = second compound 3.16 µM, first compound 0.316 µM
[28] = second compound 3.16 µM, first compound 1 µM
[29] = second compound 3.16 µM, first compound 3.16 µM
[30] = second compound 3.16 µM, first compound 10 µM
[31] = second compound 10 µM, first compound 0.0316 µM
[32] = second compound 10 µM, first compound 0.1 µM
[33] = second compound 10 µM, first compound 0.316 µM
[34] = second compound 10 µM, first compound 1 µM
[35] = second compound 10 µM, first compound 3.16 µM
[36] = second compound 10 µM, first compound 10 µM
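Further: luminescence signal used as surrogate measure of viable cells; spheroids exposed to compounds for seven days before readout.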
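Wherever viability, T/C is given: 100% = DMSO vehicle control viability as luminescence relative to vehicle.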

SMILES: CC(=O)O[C@H]1C(=O)[C@@]2(C)[C@H]([C@H](OC(=O)c3ccccc3)[C@]3(O)C[C@H](OC(=O)[C@H](O)[C@@H](NC(=O)c4ccccc4)c4ccccc4)C(C)=C1C3(C)C)[C@]1(OC(C)=O)CO[C@@H]1C[C@@H]2O + Cc1cccc(N(C)C(=O)C2C(O)CCN2c2nc(C)cc(C(F)(F)F)c2C#N)c1
- IC50 (second compound 0.0316 µM): 0.0134 µM
- IC50 (second compound 0.1 µM): 0.0129 µM
- IC50 (second compound 0.316 µM): 0.0116 µM
- IC50 (second compound 1 µM): 0.0142 µM
- IC50 (second compound 3.16 µM): 0.0132 µM
- IC50 (second compound 10 µM): 0.0125 µM
- viability, T/C (second compound 0.0316 µM, first compound 0.00949 µM): 63.2%
- viability, T/C (second compound 0.0316 µM, first compound 0.03 µM): 14.9%
- viability, T/C (second compound 0.0316 µM, first compound 0.0949 µM): 11.6%
- viability, T/C (second compound 0.0316 µM, first compound 0.3 µM): 19.4%
- viability, T/C (second compound 0.0316 µM, first compound 0.949 µM): 24.7%
- viability, T/C (second compound 0.0316 µM, first compound 3 µM): 27.8%
- viability, T/C (second compound 0.1 µM, first compound 0.00949 µM): 60.9%
- viability, T/C (second compound 0.1 µM, first compound 0.03 µM): 15.6%
- viability, T/C (second compound 0.1 µM, first compound 0.0949 µM): 18.6%
- viability, T/C (second compound 0.1 µM, first compound 0.3 µM): 18.5%
- viability, T/C (second compound 0.1 µM, first compound 0.949 µM): 23%
- viability, T/C (second compound 0.1 µM, first compound 3 µM): 24.6%
- viability, T/C (second compound 0.316 µM, first compound 0.00949 µM): 56.6%
- viability, T/C (second compound 0.316 µM, first compound 0.03 µM): 17.8%
- viability, T/C (second compound 0.316 µM, first compound 0.0949 µM): 12.7%
- viability, T/C (second compound 0.316 µM, first compound 0.3 µM): 16.9%
- viability, T/C (second compound 0.316 µM, first compound 0.949 µM): 18.8%
- viability, T/C (second compound 0.316 µM, first compound 3 µM): 23.9%
- viability, T/C (second compound 1 µM, first compound 0.00949 µM): 66.5%
- viability, T/C (second compound 1 µM, first compound 0.03 µM): 14.6%
- viability, T/C (second compound 1 µM, first compound 0.0949 µM): 17.8%
- viability, T/C (second compound 1 µM, first compound 0.3 µM): 17.1%
- viability, T/C (second compound 1 µM, first compound 0.949 µM): 22.7%
- viability, T/C (second compound 1 µM, first compound 3 µM): 24.7%
- viability, T/C (second compound 3.16 µM, first compound 0.00949 µM): 62.5%
- viability, T/C (second compound 3.16 µM, first compound 0.03 µM): 17%
- viability, T/C (second compound 3.16 µM, first compound 0.0949 µM): 14.6%
- viability, T/C (second compound 3.16 µM, first compound 0.3 µM): 17.2%
- viability, T/C (second compound 3.16 µM, first compound 0.949 µM): 21.7%
- viability, T/C (second compound 3.16 µM, first compound 3 µM): 25.1%
- viability, T/C (second compound 10 µM, first compound 0.00949 µM): 61.2%
- viability, T/C (second compound 10 µM, first compound 0.03 µM): 12.5%
- viability, T/C (second compound 10 µM, first compound 0.0949 µM): 17.8%
- viability, T/C (second compound 10 µM, first compound 0.3 µM): 14.6%
- viability, T/C (second compound 10 µM, first compound 0.949 µM): 18%
- viability, T/C (second compound 10 µM, first compound 3 µM): 16%

SMILES: O=C(Nc1ccc(O)c(NS(=O)(=O)c2ccc(F)cc2)c1)c1ccc(-c2ccccc2)cc1 + Nc1ccc(C#CCN(C(=O)Cc2ncc(C(F)(F)F)cc2C(F)(F)F)c2ccc(F)cc2)nn1
- IC50 (second compound 0.0316 µM): > 10 µM
- IC50 (second compound 0.1 µM): > 10 µM
- IC50 (second compound 0.316 µM): > 10 µM
- IC50 (second compound 1 µM): > 10 µM
- IC50 (second compound 3.16 µM): > 10 µM
- IC50 (second compound 10 µM): > 10 µM
- viability, T/C [1]: 102%
- viability, T/C [2]: 106%
- viability, T/C [3]: 89.5%
- viability, T/C [4]: 105%
- viability, T/C [5]: 106%
- viability, T/C [6]: 110%
- viability, T/C [7]: 105%
- viability, T/C [8]: 109%
- viability, T/C [9]: 112%
- viability, T/C [10]: 106%
- viability, T/C [11]: 109%
- viability, T/C [12]: 99%
- viability, T/C [13]: 111%
- viability, T/C [14]: 103%
- viability, T/C [15]: 104%
- viability, T/C [16]: 108%
- viability, T/C [17]: 116%
- viability, T/C [18]: 98.2%
- viability, T/C [19]: 115%
- viability, T/C [20]: 109%
- viability, T/C [21]: 95.8%
- viability, T/C [22]: 106%
- viability, T/C [23]: 113%
- viability, T/C [24]: 109%
- viability, T/C [25]: 107%
- viability, T/C [26]: 103%
- viability, T/C [27]: 103%
- viability, T/C [28]: 101%
- viability, T/C [29]: 97.1%
- viability, T/C [30]: 106%
- viability, T/C [31]: 102%
- viability, T/C [32]: 96.6%
- viability, T/C [33]: 103%
- viability, T/C [34]: 93.7%
- viability, T/C [35]: 95.1%
- viability, T/C [36]: 96.3%

SMILES: O=c1[nH]cc(F)c(=O)[nH]1 + COC1C(OC(N)=O)C(O)C(Oc2ccc3c(O)c(NC(=O)c4ccc(O)c(CC=C(C)C)c4)c(=O)oc3c2C)OC1(C)C
- IC50 (second compound 0.0316 µM): 9.58 µM
- IC50 (second compound 0.1 µM): 7.31 µM
- IC50 (second compound 0.316 µM): 6.05 µM
- IC50 (second compound 1 µM): 9.05 µM
- IC50 (second compound 3.16 µM): 7.96 µM
- IC50 (second compound 10 µM): 6.66 µM
- viability, T/C [1]: 114%
- viability, T/C [2]: 111%
- viability, T/C [3]: 108%
- viability, T/C [4]: 84.5%
- viability, T/C [5]: 61.6%
- viability, T/C [6]: 49%
- viability, T/C [7]: 116%
- viability, T/C [8]: 111%
- viability, T/C [9]: 105%
- viability, T/C [10]: 96.1%
- viability, T/C [11]: 57%
- viability, T/C [12]: 47.6%
- viability, T/C [13]: 96.7%
- viability, T/C [14]: 98%
- viability, T/C [15]: 97%
- viability, T/C [16]: 78.1%
- viability, T/C [17]: 62.9%
- viability, T/C [18]: 40.9%
- viability, T/C [19]: 86.1%
- viability, T/C [20]: 104%
- viability, T/C [21]: 96.4%
- viability, T/C [22]: 82.3%
- viability, T/C [23]: 70.5%
- viability, T/C [24]: 47.9%
- viability, T/C [25]: 99.2%
- viability, T/C [26]: 98.8%
- viability, T/C [27]: 93%
- viability, T/C [28]: 84.1%
- viability, T/C [29]: 75.9%
- viability, T/C [30]: 43.4%
- viability, T/C [31]: 89%
- viability, T/C [32]: 97.6%
- viability, T/C [33]: 93.8%
- viability, T/C [34]: 85.4%
- viability, T/C [35]: 57.7%
- viability, T/C [36]: 45.8%
